Values quoted from earlier work as cited in patent US20020132751A1, “Detergent compositions” (Unilever Home & Personal Care USA, Division of Conopco, Inc., priority 2000, published 2002).

Details: grams of solid to form a saturated solution in 100 grams of water at 20° C.

Row | SMILES | Water Solubility (g/100 g)
1 | O=BO[O-].[Na+] [Sodium perborate anhydrous] | 3.7
2 | O=P(O)(O)OP(=O)(O)OP(=O)(O)O [Sodium tripolyphosphate anhydrous] | 15
